Test [1] concerns RAW264.7 cells. The experiment in a line: EFAD formation in activated RAW264.7 cells treated with inhibitors. Type of test: cell-based, murine.
The target of another test is T1, PPARγ (Homo sapiens, UniProt P37231).
T1 sequence (P37231 1-505): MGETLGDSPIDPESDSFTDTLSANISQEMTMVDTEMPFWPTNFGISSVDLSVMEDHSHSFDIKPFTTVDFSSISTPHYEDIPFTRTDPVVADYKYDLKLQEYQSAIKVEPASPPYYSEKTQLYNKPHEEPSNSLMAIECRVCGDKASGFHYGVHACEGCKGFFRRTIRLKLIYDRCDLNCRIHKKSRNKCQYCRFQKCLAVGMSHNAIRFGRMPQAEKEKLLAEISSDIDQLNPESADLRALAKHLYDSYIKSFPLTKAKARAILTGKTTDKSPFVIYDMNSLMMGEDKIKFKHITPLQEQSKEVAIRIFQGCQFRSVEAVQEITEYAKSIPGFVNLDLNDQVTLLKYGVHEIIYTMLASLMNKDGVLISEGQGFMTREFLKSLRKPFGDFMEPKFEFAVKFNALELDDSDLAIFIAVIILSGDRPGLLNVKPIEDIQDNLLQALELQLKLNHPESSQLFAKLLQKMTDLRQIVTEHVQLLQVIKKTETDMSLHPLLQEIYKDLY
The experiment in a line: PPARγ beta-lactamase reporter assay. The class given is cell-based. The conditions noted are these: concentrations 0.5-10,000 nM, read-out: EC50 PPARγ activation. The procedure: (§1) FIG. 11 illustrates modulation of anti-oxidant and inflammatory responses by 17-oxoDHA and 17-oxoDPA. RAW264.7 cells were treated with increasing concentration of 17-oxoDHA and 17-oxoDPA. (a) Cells were harvested 1 h after treatment and Nrf2 levels were quantified in nuclear extracts, (b) Cells were harvested 18 h after treatment and HO—I and Nqol (upper band) levels were measured by western blot, (c, d) RAW264.7 cells were treated with increasing concentration of 17-oxoDHA and 17-oxoDP A for 6 h and Kdo2+IFNγ were added. Samples were collected at 12 h. IL-6, MCP-I and IL-IO levels were measured in the cell media by Quantikine ELISA Kit (R&D Systems) and normalized by the total protein content (c); Nitrite levels were measured in the cell media and normalized by the total protein content and iNOS and Cox-2 levels were measured in total cell lysates (d); (e) PPARγ beta-lactamase reporter assays were performed for Rosiglitazone, 17-OxoDPA, 17-OxoDHA, 15d-PGJ2, 17-hydroxyDHA, DPA, and DHA with concentrations ranging from 0.5-10,000 nM.
The observation that oxo-fatty acids, such as 15d-PGJ230, 5-oxoEPA, 6-oxoOTE, and the synthetic 4-oxoDHA31, covalently bind and activate the peroxisome proliferator-activated receptor γ (PPARγ), prompted the present inventors to test the ability of 17-oxoDPA, and 17-oxoDHA to activate PPARγ. Thus PPARγ beta-lactamase reporter assays were performed using Roziglitazone, a potent synthetic PPARγ agonist, was used in the assay as positive control.

Test [2] relates to RAW264.7 cells. The test can be described thus: Nitrite levels in cell media of activated RAW264.7 cells (Griess reaction). The class given is cell-based, murine. The conditions noted are these: 6 h pretreatment, then Kdo2+IFNγ, 12 h. The procedure: as §1
For activation experiments RAW 264.7 cells were seeded, incubated overnight, and treated at approximately 80% confluence with the indicated compounds 47. […]
(§2) Total nitrite and nitrate concentration was measured in cell culture media by Griess reaction using the Nitrate/Nitrite Colorimetric Assay Kit (Cayman Chemical).

For test [3], the system named is RAW264.7 cells. The experiment in a line: Cytokine levels (IL-6, MCP-I, IL-10) in activated RAW264.7 cells, ELISA. Type of test: cell-based, murine. The procedure: as §1
To investigate whether the 17-oxo DHA and 17-oxo DPA played a role in modulating the inflammatory response generated by Kdo2 and IFNγ, the present investigators study the change in levels of cytokines, IL-6, MCP-I and IL-IO in cells exposed to increasing doses of 17-oxo DHA and 17-oxo DPA. […]
In general terms: ELISA stands for enzyme-linked immunosorbent assay.

A further test has as its system Nrf2. The test can be described thus: Nrf2 nuclear accumulation and HO-1/Nqo1 expression, western blot. The class given is cell-based, murine. The following applies: RAW264.7; Nrf2 at 1 h, HO-1/Nqo1 at 18 h. The procedure:
as §1
As described above, compounds of the invention can react with biological thiols to form reversible covalent adducts. […]
(§3) Protein concentrations of samples were measured by BCA assay (Pierce). […] Actin (detected by Sigma A2066) was used as loading control. […]
In general terms: In western blotting, separated proteins are transferred to a membrane and probed.

For test [4], the system named is inducible nitric oxide synthase (iNOS). The experiment in a line: iNOS induction and nitrite accumulation in activated RAW264.7 cells. Type of test: cell-based, murine. The following applies: RAW264.7 activated with Kdo2 and IFNγ. The procedure:
as §1
For activation experiments RAW 264.7 cells were seeded, incubated overnight, and treated at approximately 80% confluence with the indicated compounds 47. Non-activated controls were treated with vehicle alone. During activation, cells were maintained in an activation medium (SMEM) of Minimum Essential Medium Eagle (Cellgro, 17-305)+2% FBS supplemented with L-glutamine (584 mg/L), Na-pyruvate (110 mg/L) and Hepes (3.57 g/L, pH 7.4). For inhibition studies, inhibitors were added to the medium at the time of activation and MTT assays were used to confirm cell viability. Cells were harvested 20 h post activation (unless otherwise indicated) in 50 mM phosphate buffer (pH 7.4) and snap frozen in liquid N2. […]
as §3, §2

The next test addresses GAPDH (Oryctolagus cuniculus, UniProt P46406). The test can be described thus: In vitro alkylation of GAPDH, mass spectrometric analysis. The class given is biochemical, rabbit. From the text: FIG. 21 illustrates the mass spectrometric analysis of an in vitro reaction of GAPDHvith EFAD-2. Four residues were detected and confirmed-as being targets for EfAD-2 in treated rabbit GAPDH. The peptides were alkylated as Cys244 (a), His163 (b), Cys149 (c) and His328 (d). Upper panels show EFAD-2 modified peptides and lower panels show spectra from corresponding native peptide.
To more specifically test the binding of EFADs to nucleophilic residues in proteins, we tested whether GAPDH was alkylated by EFADs. This enzyme is a well-characterized target for electrophiles and becomes easily inactivated by nitrosylation, oxidation or nucleophilic addition.

[5] abbreviates: RAW264.7 activated with Kdo2 and IFNγ, inhibitor added at activation, 20 h.

Usually EC50 stands for the concentration that produces a half-maximal response.

Molecules are shown by their SMILES. “Also recorded” adds a separate entry of the source.

GAPDH, sequence (P46406 whole entry): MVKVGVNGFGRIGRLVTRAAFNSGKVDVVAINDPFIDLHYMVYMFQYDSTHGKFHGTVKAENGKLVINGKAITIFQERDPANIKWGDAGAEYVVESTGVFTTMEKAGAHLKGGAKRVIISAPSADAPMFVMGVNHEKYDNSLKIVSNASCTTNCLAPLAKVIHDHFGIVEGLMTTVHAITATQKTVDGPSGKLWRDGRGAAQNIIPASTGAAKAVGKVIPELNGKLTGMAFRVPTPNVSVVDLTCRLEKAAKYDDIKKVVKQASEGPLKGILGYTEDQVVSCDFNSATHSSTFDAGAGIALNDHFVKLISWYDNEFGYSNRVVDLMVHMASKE

As to `CC(C)Cc1ccc(C(C)C(=O)O)cc1` (racemic) [ibuprofen], the “inhibition of EFAD production” value with RAW264.7 cells [1] (setting [5]) was “more than 80%”. Besides, the “effect on EFAD-I formation” value in the test on RAW264.7 cells [1] (ibuprofen 100 μM, exception stated in the text) is on record as “no significant effect”.
With `CCCCCC=CC=C1C(=O)C=C[C@@H]1CC=CCCCC(=O)O` [15d-PGJ2, 15-deoxy-Δ (12,14)-prostaglandin J2, reference compound], the concentration giving a half-maximal response (EC50) on PPARγ is about 0.025 µM.
On the same count and under the same terms, the result for `CC/C=C\CC(O)/C=C/C=C\C/C=C\C/C=C\CCCCCC(=O)O` (stereo not shown) [17-OH-DPA, 17-OH(7Z,10Z,13Z,15A,19Z)-docosa-7,10,13,15,19-pentanoic acid, reference compound] reads over 10 µM.
`CC/C=C\CC(=O)C=C/C=C\C/C=C\C/C=C\C/C=C\CCC(=O)O` [17-oxoDHA, 17-oxo-(4Z,7Z,10Z,13Z,15A,19Z)-docosa-4,7,10,13,15,19-hexanoic acid]: at PPARγ, the EC50 is about 0.04 µM. Also, in the test on RAW264.7 cells [2] (20 μM), the “reduction of nitrite production” value is listed as −70%. The “IFNγ and LPS-induced cytokine production” value in the test on RAW264.7 cells [3] is on record as “inhibited”. In the test on Nrf2, the “Nrf2 nuclear accumulation and expression of HO-1 and Nqo1” value is “promoted dose-dependent Nrf2 nuclear accumulation; also recorded: induced the anti-oxidant response”. Further, in test [4], the “iNOS induction and accumulation of nitrite in the cell media” value was “dose-dependent inhibition”. Besides, the “adduct formation with GAPDH residues” value on GAPDH is “covalently bind Cys and His residues”.
For the compound `CC/C=C\CC(=O)C=C/C=C\C/C=C\C/C=C\CCCCCC(=O)O` [17-oxoDPA, 17-oxo-(7Z,10Z,13Z,15A,19Z)-docosa-7,10,13,15,19-pentanoic acid], at PPARγ, the EC50 is about 0.04 µM. Also, the “reduction of nitrite production” value in the test on RAW264.7 cells [2] (25 μM) is −70%. Further, the “IFNγ and LPS-induced cytokine production” value in the test on RAW264.7 cells [3] is on record as “inhibited”. Besides, in the test with Nrf2, the “Nrf2 nuclear accumulation and expression of HO-1 and Nqo1” value was “promoted dose-dependent Nrf2 nuclear accumulation; also recorded: induced the anti-oxidant response”. Further, the “iNOS induction and accumulation of nitrite in the cell media” value in test [4] is recorded as “dose-dependent inhibition”. In addition, the “adduct formation with GAPDH residues” value at GAPDH is “covalently bind Cys and His residues”.
In the case of `CCCCCC#CCC#CCC#CCC#CCCCC(=O)O` [ETYA, Eicosatetraynoic acid], the “effect on EFAD formation” value with RAW264.7 cells [1] (setting [5]) is reported as “strongly inhibit”.
On the same count and under the same terms, the result for `COc1ccc2c(c1)c(CC(=O)O)c(C)n2C(=O)c1ccc(Cl)cc1` [Indomethacin] reads “completely abolish”.
On the same count and under the same terms, for `CC(C)c1ccc2c(c1)c(SC(C)(C)C)c(CC(C)(C)C(=O)O)n2Cc1ccc(Cl)cc1` [MK886] the value was “no significant effect”; for `CS(=O)(=O)Nc1ccc([N+](=O)[O-])cc1OC1CCCCC1` [NS-398], “abolished”; for `C=C1[C@@H](O)[C@@H]2O[C@]3(CC[C@H](/C=C/[C@@H](C)[C@@H]4CC(C)=C[C@@]5(O[C@H](C[C@@](C)(O)C(=O)O)CC[C@H]5O)O4)O3)CC[C@H]2O[C@@H]1[C@@H](O)C[C@H](C)[C@H]1O[C@@]2(CCCCO2)CC[C@H]1C` [OKA, okadaic acid], “slight increase”.
Still for that read-out and setting: for `O=C(O)Cc1ccccc1Nc1c(Cl)cccc1Cl` [diclofenac] the value was “completely abolish”.
